{"source": "PubChem BioAssay AID2060490", "about": "(Molecular Pharmacology Branch, DTP, NCI, 2025)", "system": "885512-296-R-J2-PDC complex spheroid viability", "test": "Anticancer human tumor 885512-296-R-J2-PDC patient-derived breast carcinoma cell line growth inhibition [GQUAD]", "conditions": "for IC50: curve of first compound; for viability, T/C: stronger effect = lower value", "in_short": "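Tumor cells were grown as complex spheroids with HUVEC endothelial cells and mesenchymal stem cells as stroma. G-quadruplex stabilizers were combined with targeted agents over half-log dilutions from near the clinical Cmax, or from 10 microM.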"}
{"molecule": "C=CCn1c(=O)c2cnc(Nc3ccc(N4CCN(C)CC4)cc3)nc2n1-c1cccc(C(C)(C)O)n1", "note": "+ CN(C)c1ccc(Nc2c3ccc(NC(=O)CCN4CCCC4)cc3nc3cc(NC(=O)CCN4CCCC4)ccc23)cc1;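 note: spheroids exposed to the compounds for one week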;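 for viability, T/C: percent of tumor spheroid viability relative to DMSO vehicle control wells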", "values": [{"measurement": "IC50", "setting": "second compound 0.0316 µM", "value": 415, "unit": "nM"}, {"measurement": "IC50", "setting": "second compound 0.1 µM", "value": 311, "unit": "nM"}, {"measurement": "IC50", "setting": "second compound 0.316 µM", "value": 341, "unit": "nM"}, {"measurement": "IC50", "setting": "second compound 1 µM", "value": 462, "unit": "nM"}, {"measurement": "IC50", "setting": "second compound 3.16 µM", "value": 358, "unit": "nM"}, {"measurement": "IC50", "setting": "second compound 10 µM", "value": "< 31.6", "unit": "nM"}, {"measurement": "viability, T/C", "setting": "second compound 0.0316 µM, first compound 0.0316 µM", "value": 104, "unit": "%"}, {"measurement": "viability, T/C", "setting": "second compound 0.0316 µM, first compound 0.1 µM", "value": 102, "unit": "%"}, {"measurement": "viability, T/C", "setting": "second compound 0.0316 µM, first compound 0.316 µM", "value": 62.7, "unit": "%"}, {"measurement": "viability, T/C", "setting": "second compound 0.0316 µM, first compound 1 µM", "value": 8.77, "unit": "%"}, {"measurement": "viability, T/C", "setting": "second compound 0.0316 µM, first compound 3.16 µM", "value": 3.39, "unit": "%"}, {"measurement": "viability, T/C", "setting": "second compound 0.0316 µM, first compound 10 µM", "value": 2.43, "unit": "%"}, {"measurement": "viability, T/C", "setting": "second compound 0.1 µM, first compound 0.0316 µM", "value": 120, "unit": "%"}, {"measurement": "viability, T/C", "setting": "second compound 0.1 µM, first compound 0.1 µM", "value": 98.9, "unit": "%"}, {"measurement": "viability, T/C", "setting": "second compound 0.1 µM, first compound 0.316 µM", "value": 51.7, "unit": "%"}, {"measurement": "viability, T/C", "setting": "second compound 0.1 µM, first compound 1 µM", "value": 7.71, "unit": "%"}, {"measurement": "viability, T/C", "setting": "second compound 0.1 µM, first compound 3.16 µM", "value": 3.11, "unit": "%"}, {"measurement": "viability, T/C", "setting": "second compound 0.1 µM, first compound 10 µM", "value": 2.74, "unit": "%"}, {"measurement": "viability, T/C", "setting": "second compound 0.316 µM, first compound 0.0316 µM", "value": 122, "unit": "%"}, {"measurement": "viability, T/C", "setting": "second compound 0.316 µM, first compound 0.1 µM", "value": 93.5, "unit": "%"}, {"measurement": "viability, T/C", "setting": "second compound 0.316 µM, first compound 0.316 µM", "value": 58, "unit": "%"}, {"measurement": "viability, T/C", "setting": "second compound 0.316 µM, first compound 1 µM", "value": 9.28, "unit": "%"}, {"measurement": "viability, T/C", "setting": "second compound 0.316 µM, first compound 3.16 µM", "value": 2.73, "unit": "%"}, {"measurement": "viability, T/C", "setting": "second compound 0.316 µM, first compound 10 µM", "value": 2.28, "unit": "%"}, {"measurement": "viability, T/C", "setting": "second compound 1 µM, first compound 0.0316 µM", "value": 102, "unit": "%"}, {"measurement": "viability, T/C", "setting": "second compound 1 µM, first compound 0.1 µM", "value": 103, "unit": "%"}, {"measurement": "viability, T/C", "setting": "second compound 1 µM, first compound 0.316 µM", "value": 70.5, "unit": "%"}, {"measurement": "viability, T/C", "setting": "second compound 1 µM, first compound 1 µM", "value": 8.23, "unit": "%"}, {"measurement": "viability, T/C", "setting": "second compound 1 µM, first compound 3.16 µM", "value": 2.54, "unit": "%"}, {"measurement": "viability, T/C", "setting": "second compound 1 µM, first compound 10 µM", "value": 2.76, "unit": "%"}, {"measurement": "viability, T/C", "setting": "second compound 3.16 µM, first compound 0.0316 µM", "value": 105, "unit": "%"}, {"measurement": "viability, T/C", "setting": "second compound 3.16 µM, first compound 0.1 µM", "value": 98.3, "unit": "%"}, {"measurement": "viability, T/C", "setting": "second compound 3.16 µM, first compound 0.316 µM", "value": 55.2, "unit": "%"}, {"measurement": "viability, T/C", "setting": "second compound 3.16 µM, first compound 1 µM", "value": 8.19, "unit": "%"}, {"measurement": "viability, T/C", "setting": "second compound 3.16 µM, first compound 3.16 µM", "value": 2.51, "unit": "%"}, {"measurement": "viability, T/C", "setting": "second compound 3.16 µM, first compound 10 µM", "value": 2.74, "unit": "%"}, {"measurement": "viability, T/C", "setting": "second compound 10 µM, first compound 0.0316 µM", "value": 22, "unit": "%"}, {"measurement": "viability, T/C", "setting": "second compound 10 µM, first compound 0.1 µM", "value": 22.4, "unit": "%"}, {"measurement": "viability, T/C", "setting": "second compound 10 µM, first compound 0.316 µM", "value": 12.2, "unit": "%"}, {"measurement": "viability, T/C", "setting": "second compound 10 µM, first compound 1 µM", "value": 5.57, "unit": "%"}, {"measurement": "viability, T/C", "setting": "second compound 10 µM, first compound 3.16 µM", "value": 1.22, "unit": "%"}, {"measurement": "viability, T/C", "setting": "second compound 10 µM, first compound 10 µM", "value": 1.46, "unit": "%"}]}
